# Source: patent publication US10683121B2, “Method for preparation of research organisms” (BIOSYSTEMS TECHNOLOGY LIMITED, priority 2015, dated 2020)
# Read-outs that look alike come from different tables or passages of the source.
# Key:
# [1] = system: culturable microorganisms on the surface of G. mellonella larvae; assay: Measurement of surface contamination of larvae after alcohol decontamination (PBS wash plated on LB agar); format: cell-based; details: for percentage reduction in surface contaminants compared to control: n=10 (FIG. 1)
# Procedure: Individual G. mellonella larva from groups of 10 were immersed thrice into 1 ml of PBS using sterilised forceps. The PBS wash was serially diluted, plated onto Luria Broth (LB) agar and incubated at 37° C. for 24 h. Any colonies of organisms visible after this period were counted. They may optionally be identified to species level, for example by use of 16S RNA sequencing. Ethanol was diluted with sterile water to 70% or 50% (v/v). We tested two different decontamination techniques. […] To assess the microbial flora after decontamination, we used the PBS washing method outlined above. Using the “bath” method, different lengths of time for decontamination were tested. […] The PBS was plated on LB agar; plates and G. mellonella larvae were incubated at 37° C. for 24 h. The health of larvae was monitored and contaminants on the plates counted. Further concentrations and decontamination treatment periods were studied. In each case, ten Galleria larvae were used, placed into a sterile mesh tray and immersed using the “dip” method into isopropyl alcohol, methanol or ethanol, prepared to varying concentrations by dilution with sterile water as described above. The treatment conditions were: Larvae were patted dry on paper towel and grasped with sterile forceps dip larvae individually into PBS three times, for measurement of surface contamination as described above.
# G. mellonella larvae [2] = details: single 20 s bath exposure to 50% (v/v), 24 hours
# Procedure: Final instar G. mellonella larvae were obtained from Live Foods UK and kept on woodchip at 15° C. until use. The larvae were used within two weeks of arrival. The Galleria larvae were screened for colour, weight and size before use. Larvae in a weight range between 0.2-0.3 g and light cream in colour were selected for experiments. Injections were carried out using a Hamilton syringe with 5 μl dispenser; 10 μl of inoculum was used per larva in each injection. The injection was performed into the right foreleg. Phosphate Buffer Saline (PBS, pH 7.2) was used as a control inoculum as it should not kill or harm the larvae.
# We injected larvae with PBS before or after decontamination. […] For the second group, only 10 μl PBS was injected into the right foreleg, with no preliminary decontamination. All larvae were placed into an incubator at 37° C. for 24 h and monitored for health and survival.
# Finally, we investigated whether decontamination of the larvae improved the survival of larvae which were subsequently injected with PBS. […] These larvae were dried and then injected 10 μl PBS into the right foreleg. The larvae were placed at 37° C. and survival recorded over the next 24 hours.
# G. mellonella larvae [3] = details: in vivo
# Procedure: The larvae were used within two weeks of arrival. […] Larvae in a weight range between 0.2-0.3 g and light cream in colour were selected for experiments. […] The injection was performed into the right foreleg.
# Using the “bath” method, different lengths of time for decontamination were tested. Using sterile tweezers each larvae was rolled in 20 ml of 50% ethanol for 10 s, 20 s, 30 s or 60 s, patted dry with blue roll and dipped in sterile PBS. The PBS was plated on LB agar; plates and G. mellonella larvae were incubated at 37° C. for 24 h. The health of larvae was monitored and contaminants on the plates counted.
# Further concentrations and decontamination treatment periods were studied. In each case, ten Galleria larvae were used, placed into a sterile mesh tray and immersed using the “dip” method into isopropyl alcohol, methanol or ethanol, prepared to varying concentrations by dilution with sterile water as described above. The treatment conditions were:
# These contaminants can be introduced into the larva haemolymph through the injection point when challenging larvae. We believe that the deaths we have seen in past experiments in control groups challenged with PBS was a consequence of the introduction of this microbial flora into the body cavity of the larvae. Deaths in control groups can make the interpretation of results from test groups difficult. Therefore, the plan in this study was to identify a way of surface decontaminating the larvae, so that deaths in control groups were avoided, and therefore improving the quality of the data obtained from experiments using G. mellonella larvae. Galleria larvae are scored as dead when there is no movement when gently probed with a pipette tip. Colour is also an indicator of a response to infection or injury as such larvae produce melanin which creates a colour change of cream to pale or dark brown (4).
smiles,measurement,setting,value
"CC(C)O [Isopropyl alcohol, isopropanol]",% reduction in microbial surface contamination,"[1]; 50%, 20 s immersion (dip)",99.9%
same,% reduction in microbial surface contamination,"[1]; 50%, 40 s immersion (dip)",99.9%
same,% reduction in microbial surface contamination,"[1]; 70%, 20 s immersion (dip)",99.9%
same,% reduction in microbial surface contamination,"[1]; 70%, 40 s immersion (dip)",99.8%
"CO [Methanol, methanol]",% reduction in microbial surface contamination,"[1]; 50%, 20 s immersion (dip)",99.0%
same,% reduction in microbial surface contamination,"[1]; 50%, 40 s immersion (dip)",99.7%
same,% reduction in microbial surface contamination,"[1]; 70%, 20 s immersion (dip)",99.9%
same,% reduction in microbial surface contamination,"[1]; 70%, 40 s immersion (dip)",99.9%
"CCO [Ethanol, ethanol]",groups of larvae with 100% survival after PBS injection,"G. mellonella larvae [2]; 10 μl PBS into right foreleg, 37° C., groups of 10",19/20
same,reduction in deaths versus un-decontaminated larvae injected with PBS,G. mellonella larvae [2]; PBS injection,83%
same,larval survival 24 hrs,"G. mellonella larvae [3]; Galleria mellonella, 40 %",10/10
same,larval survival 24 hrs,"G. mellonella larvae [3]; Galleria mellonella, 50 %",10/10
same,larval survival 24 hrs,"G. mellonella larvae [3]; Galleria mellonella, 60 %",10/10
same,larval survival 48 hrs,"G. mellonella larvae [3]; Galleria mellonella, 48 h, 40 %",10/10
same,larval survival 48 hrs,"G. mellonella larvae [3]; Galleria mellonella, 48 h, 50 %",10/10
same,Observations at 48 h (death),"G. mellonella larvae [3]; Galleria mellonella, 48 h, 50 % (v/v)",15% death
same,larval survival 72 hrs,"G. mellonella larvae [3]; Galleria mellonella, 40 %",10/10
same,larval survival 72 hrs,"G. mellonella larvae [3]; Galleria mellonella, 50 %",10/10
same,Observations at 48 h,G. mellonella larvae [3],No death or pigment change
same,% reduction in microbial surface contamination,"[1]; 40%, 20 s immersion (dip)",95.7%
same,% reduction in microbial surface contamination,"[1]; 40%, 40 s immersion (dip)",99.2%
same,percentage reduction in surface contaminants compared to control,"[1]; 50% ethanol, bath technique",99.99%
same,percentage reduction in surface contaminants compared to control,"[1]; 50% ethanol, dip technique",99.99%
same,% reduction in microbial surface contamination,"[1]; 50%, 20 s immersion (dip)",99.0%
same,% reduction in microbial surface contamination,"[1]; 50%, 40 s immersion (dip)",98.9%
same,% reduction in microbial surface contamination,"[1]; 50%, 50 s immersion (dip)",99.4%
same,% reduction in microbial surface contamination,"[1]; 60%, 20 s immersion (dip)",98.4%
same,% reduction in microbial surface contamination,"[1]; 60%, 40 s immersion (dip)",99.1%
same,percentage reduction in surface contaminants compared to control,"[1]; 70% ethanol, bath technique",99.98%
same,percentage reduction in surface contaminants compared to control,"[1]; 70% ethanol, dip technique",99.52%
